This passage reports Kd results from PMC8892206, “An RRx-001 Analogue With Potent Anti-NLRP3 Inflammasome Activity but Without High-Energy Nitro Functional Groups” (Frontiers in Pharmacology, 2022).

The term Kd denotes the free concentration of one partner at which half of the binding sites on the other are occupied at equilibrium, for simple one-to-one binding. Read a high Kd as a looser complex.

This assay concerns the target T1, NLRP3 (Homo sapiens, UniProt Q96P20).
T1 construct: purified human His-GFP-NLRP3; NACHT domain mapped by DARTS
Kind of assay: microscale thermophoresis with purified GFP-NLRP3; DARTS and C409A mutation support. It counts as binding.

T1 sequence (Q96P20 whole entry, the tested form may be a part): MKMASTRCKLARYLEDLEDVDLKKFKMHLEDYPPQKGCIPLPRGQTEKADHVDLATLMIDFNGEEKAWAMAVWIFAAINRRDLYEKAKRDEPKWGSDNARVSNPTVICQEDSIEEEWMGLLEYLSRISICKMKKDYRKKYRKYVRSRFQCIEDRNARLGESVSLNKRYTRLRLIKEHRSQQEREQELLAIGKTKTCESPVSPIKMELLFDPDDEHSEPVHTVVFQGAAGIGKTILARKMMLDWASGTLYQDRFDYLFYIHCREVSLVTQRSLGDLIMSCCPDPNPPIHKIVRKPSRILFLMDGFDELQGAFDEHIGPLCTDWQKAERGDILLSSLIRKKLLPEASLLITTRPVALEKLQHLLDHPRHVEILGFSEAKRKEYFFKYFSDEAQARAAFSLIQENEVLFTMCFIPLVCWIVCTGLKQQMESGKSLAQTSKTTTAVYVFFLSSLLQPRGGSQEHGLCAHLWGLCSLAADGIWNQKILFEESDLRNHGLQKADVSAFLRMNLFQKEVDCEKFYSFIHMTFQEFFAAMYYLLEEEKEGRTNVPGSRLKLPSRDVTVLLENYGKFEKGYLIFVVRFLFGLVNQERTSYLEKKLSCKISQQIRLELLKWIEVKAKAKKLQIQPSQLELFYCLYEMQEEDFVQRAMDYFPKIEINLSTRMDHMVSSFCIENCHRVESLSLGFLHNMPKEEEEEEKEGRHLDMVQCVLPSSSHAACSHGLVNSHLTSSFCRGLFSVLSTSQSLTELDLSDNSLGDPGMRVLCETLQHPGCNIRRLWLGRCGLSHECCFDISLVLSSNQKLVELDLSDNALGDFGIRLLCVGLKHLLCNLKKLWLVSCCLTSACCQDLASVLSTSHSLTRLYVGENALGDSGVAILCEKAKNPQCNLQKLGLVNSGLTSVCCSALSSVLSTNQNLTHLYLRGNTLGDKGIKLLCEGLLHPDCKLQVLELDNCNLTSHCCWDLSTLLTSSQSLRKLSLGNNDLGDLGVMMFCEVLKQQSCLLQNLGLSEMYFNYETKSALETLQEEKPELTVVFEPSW

Regarding `O=C(CBr)NCc1ccc(C(F)(F)F)cc1` [149-01], the Kd turned out to be 48.2 nM. This lies in the double-digit nanomolar range.
